The subject of test [1] is pMEK. Kind of test: pMEK AlphaLISA (MEK1 pS218/222), A549 cells, EGF stimulated. Format: cell-based. To be noted: Homo sapiens, 2 h compound, EGF 30 ng/ml 15 min. The method, then: (§1) Determination of pMEK IC50s
(§2) A549 cells were cultured in F12K/10% FBS media (ATCC CAT #21127022) and were seeded at 10000 cells/well and HCT116 cells were cultured in McCoy's 5A/10% FBS media (Gibco Cat #30-2007) were seeded at 15000 cells/well in 384 microplates (Corning CAT #3765). Cells were incubated overnight in a TC incubator. Compounds were serially diluted and added to cells for 2 h in a TC incubator. At the end of the 2 h EGF (R&D Systems 236-EG-200) was added at a final EGF concentration of 30 ng/ml and incubated for 15 minutes at 37° C. in a TC incubator. AlphaLisa (Perkin Elmer) was performed according to manufacturer's instructions (Perkin Elmer CAT #ALPHA.SF ULTRA MEK1 PS218/222). The percent (%) inhibition at each concentration of compound is calculated based on and relative to the AlphaLISA signal in the HPE and ZPE control wells contained within each assay plate. The ZPE control wells contain cells and DMSO as 0% inhibition, and the HPE control wells only contain cells and control compound (Sellekchem Staurosporin CAT #S1421) as 100% inhibition.

The test system of test [2] is pMEK. The experiment in a line: pMEK AlphaLISA (MEK1 pS218/222), HCT116 cells, EGF stimulated. The conditions noted are these: Homo sapiens, HCT-116, 2 h compound, EGF 30 ng/ml 15 min. Format: cell-based. The method, then:
as §1, §2

Test [3] relates to pERK Thr202/Tyr204. Kind of test: pERK HTRF detection of pERK Thr202/Tyr204, A549 cells. The format is cell-based. To be noted: Homo sapiens, 2 h compound. The method, then:
(§3) pERK: Detection of pERK Thr202/Tyr204
(§4) A549 cultured in F-12K/10% FBS were seeded at 10000 cells/well, and HCT116 cultured in McCoy's 5A/10% FBS were seeded at 15000 cells/well cells into Corning 384-well plates, respectively. Cells were incubated overnight in a TC incubator. Compounds were serially diluted and added to cells for 2 h in a TC incubator. Cells were then lysed according to manufacture protocol (Cisbio CAT #: 64AERPEG). Cell lysate was mixed with phospho-ERK (Thr202/Tyr204) antibody solution at 5:1 (v:v). Lysate and antibody mixture were incubated overnight at room temperature. HTRF signal was read at two different wavelengths (665 nm and 620 nm) on a compatible HTRF reader.

The test system of test [4] is pERK Thr202/Tyr204. Kind of test: pERK HTRF detection of pERK Thr202/Tyr204, HCT116 cells. The format is cell-based. The conditions noted are these: Homo sapiens, HCT-116, 2 h compound. On the procedure:
as §3, §4

For another test, the system named is HCT116 cells. Kind of test: HCT116 Cell Titer Glow assay (CTG). The conditions noted are these: Homo sapiens, HCT-116, 72 h; for IC50: read-out: CTG IC50 (nM) Cell Line: HCT116.20.
The next test has as its system IPC298 cells. Kind of test: IPC298 Cell Titer Glow assay (CTG). The conditions noted are these: Homo sapiens, IPC-298, 72 h; for IC50: read-out: CTG IC50 (nM) Cell Line: IPC298.2.

Take `CNS(=O)(=O)Nc1nccc(Cc2cncc(Nc3ccc(Br)cc3F)c2C)c1F` [Example 1, N-(4-bromo-2-fluorophenyl)-5-({3-fluoro-2-[(methylsulfamoyl)amino]pyridin-4-yl}methyl)-4-methylpyridin-3-amine]: the IC50 in the test on pMEK [1], with pMEK [2], in the test on pERK Thr202/Tyr204 [3], in the test with pERK Thr202/Tyr204 [4], in the test with HCT116 cells and with IPC298 cells was under 10 nM each time.

For `CC(=O)Nc1nccc(Cc2cncc(Nc3ccc(Br)cc3F)c2C)c1F` [Example 3, N-[4-({5-[(4-bromo-2-fluorophenyl)amino]-4-methylpyridin-3-yl}methyl)-3-fluoropyridin-2-yl]acetamide], the IC50 is 10 to 100 nM with pMEK [1], 10 to 100 nM in the test on pMEK [2], under 10 nM with pERK Thr202/Tyr204 [3] and under 10 nM in the test on pERK Thr202/Tyr204 [4].

Turning to `COC(=O)Nc1nccc(Cc2cncc(Nc3ccc(Br)cc3F)c2C)c1F` [Example 4, methyl N-[4-({5-[(4-bromo-2-fluorophenyl)amino]-4-methylpyridin-3-yl}methyl)-3-fluoropyridin-2-yl]carbamate], the IC50 in the test with pMEK [1], in the test with pMEK [2], in the test with pERK Thr202/Tyr204 [3] and with pERK Thr202/Tyr204 [4] was 10 to 100 nM in each case.

As for `CNS(=O)(=O)Nc1ccc(Cc2cncc(Nc3ccc(Br)cc3F)c2C)cc1` [Example 5, N-(4-bromo-2-fluorophenyl)-4-methyl-5-({4-[(methylsulfamoyl)amino]phenyl}methyl)pyridin-3-amine], the IC50 with pMEK [1] was under 10 nM; in the test on pMEK [2] it was under 10 nM; in the test with pERK Thr202/Tyr204 [3], under 10 nM; in the test on pERK Thr202/Tyr204 [4], under 10 nM; with HCT116 cells it was 10 to 100 nM; with IPC298 cells, under 10 nM.

For `CNS(=O)(=O)Nc1nccc(Cc2cncc(Nc3ccc(Cl)cc3F)c2C)c1F` [Example 6, N-(4-chloro-2-fluorophenyl)-5-({3-fluoro-2-[(methylsulfamoyl)amino]pyridin-4-yl}methyl)-4-methylpyridin-3-amine], the IC50 in the test on pMEK [1] is under 10 nM; with pMEK [2] it was under 10 nM; in the test with pERK Thr202/Tyr204 [3], under 10 nM; in the test on pERK Thr202/Tyr204 [4] it was under 10 nM; with HCT116 cells it was 10 to 100 nM.

Take `Cc1c(Cc2ccnc(S(C)(=O)=O)c2F)cncc1Nc1ccc(Br)cc1F` [Example 9, N-(4-bromo-2-fluorophenyl)-5-[(3-fluoro-2-methanesulfonylpyridin-4-yl)methyl]-4-methylpyridin-3-amine]: the IC50 in the test on pMEK [1] is under 10 nM; with pMEK [2], 10 to 100 nM; in the test with pERK Thr202/Tyr204 [3] it was under 10 nM; in the test with pERK Thr202/Tyr204 [4] it was under 10 nM.

Regarding `CNC(=O)Nc1nccc(Cc2cncc(Nc3ccc(Br)cc3F)c2C)c1F` [Example 12, 1-[4-({5-[(4-bromo-2-fluorophenyl)amino]-4-methylpyridin-3-yl}methyl)-3-fluoropyridin-2-yl]-3-methylurea], the IC50 with pMEK [1], with pMEK [2], with pERK Thr202/Tyr204 [3] and in the test on pERK Thr202/Tyr204 [4] was under 10 nM throughout.

As to `CNS(=O)(=O)Nc1nccc(Cc2cncc(OC)c2C)c1F` [Example 24, ({3-fluoro-4-[(5-methoxy-4-methylpyridin-3-yl)methyl]pyridin-2-yl}sulfamoyl)(methyl)amine], the IC50 is 10 to 100 nM with pMEK [1], over 100 nM with pMEK [2] (numeric value), 100 to 500 nM with HCT116 cells and under 10 nM in the test on IPC298 cells.

As to `CNS(=O)(=O)Nc1nccc(Cc2cncc(Nc3ccc(Cl)cc3F)c2F)c1F` [Example 26, 4-[[5-(4-chloro-2-fluoro-anilino)-4-fluoro-3-pyridyl]methyl]-3-fluoro-N-(methylsulfamoyl)pyridin-2-amine], the IC50 was under 10 nM in the test on pMEK [1], under 10 nM in the test with pMEK [2], 100 to 500 nM in the test with HCT116 cells and 10 to 100 nM in the test with IPC298 cells.

`CNS(=O)(=O)Nc1nccc(Cc2cncc(Oc3ccc(Cl)cn3)c2C)c1F` [Example 27, {[4-({5-[(5-chloropyridin-2-yl)oxy]-4-methylpyridin-3-yl}methyl)-3-fluoropyridin-2-yl]sulfamoyl}(methyl)amine]: the IC50 was under 10 nM in the test on pMEK [1], under 10 nM in the test on pMEK [2], 500 to 1000 nM with HCT116 cells and 10 to 100 nM with IPC298 cells.

Regarding `Cc1c(Cc2ccnc(S(C)(=O)=O)c2F)cncc1Nc1ccc(Cl)cc1F` [Example 28, N-(4-chloro-2-fluorophenyl)-5-[(3-fluoro-2-methanesulfonylpyridin-4-yl)methyl]-4-methylpyridin-3-amine], the IC50 in the test on pMEK [1] is 10 to 100 nM; in the test on pMEK [2], 10 to 100 nM; in the test with HCT116 cells it was over 1000 nM; in the test on IPC298 cells, 10 to 100 nM.

As to `CNS(=O)(=O)Nc1nccc(Cc2cncc(Nc3ccc(Cl)cc3OC)c2C)c1F` [Example 35, 4-[[5-(4-chloro-2-methoxy-anilino)-4-methyl-3-pyridyl]methyl]-3-fluoro-N-(methylsulfamoyl)pyridin-2-amine], the IC50 in the test on pMEK [1], in the test with pMEK [2], in the test on HCT116 cells and with IPC298 cells was under 10 nM throughout.

Turning to `CNS(=O)(=O)Nc1nccc(Cc2cncc(Nc3ccc(Cl)cc3F)c2OC)c1F` [Example 37, N-(4-chloro-2-fluorophenyl)-5-({3-fluoro-2-[(methylsulfamoyl)amino]pyridin-4-yl}methyl)-4-methoxypyridin-3-amine], the half-inhibitory concentration (IC50) in the test with pMEK [1] is under 10 nM; with pMEK [2] it was under 10 nM; with pERK Thr202/Tyr204 [4] (numeric value) it was 0.362 nM; in the test on HCT116 cells, 10 to 100 nM; in the test with IPC298 cells, under 10 nM.

As to `CNS(=O)(=O)Nc1nccc(Cc2cncc(Nc3ccc(Cl)cc3F)c2C(F)(F)F)c1F` [Example 38, N-(4-chloro-2-fluorophenyl)-5-({3-fluoro-2-[(methylsulfamoyl)amino]pyridin-4-yl}methyl)-4-(trifluoromethyl)pyridin-3-amine], the IC50 was under 10 nM in the test with pMEK [1]; under 10 nM with pMEK [2]; 0.241 nM with pERK Thr202/Tyr204 [4] (numeric value); under 10 nM with HCT116 cells; under 10 nM in the test with IPC298 cells.

Regarding `CNS(=O)(=O)Nc1nccc(Cc2cncc(Nc3ccc(OC(F)(F)F)cc3F)c2C)c1F` [Example 39], the IC50 in the test on pMEK [1] was under 10 nM; in the test on pMEK [2] it was under 10 nM; in the test with pERK Thr202/Tyr204 [4] (numeric value), 0.354 nM; with HCT116 cells it was 10 to 100 nM; with IPC298 cells it was under 10 nM.

For `CNS(=O)(=O)Nc1nccc(Cc2cncc(Oc3ccc(Cl)cc3F)n2)c1F` [Example 40, 4-[[6-(4-chloro-2-fluoro-phenoxy)pyrazin-2-yl]methyl]-3-fluoro-N-(methylsulfamoyl)pyridin-2-amine], the IC50 in the test with pMEK [1], in the test with pMEK [2], with pERK Thr202/Tyr204 [4] (numeric value), in the test on HCT116 cells and in the test with IPC298 cells was over 1000 nM in each case. For the same compound, the viability at 1000 µM with HCT116 cells (read-out: CTG % cell viability 1000 uM HCT116.20, HCT116 cells, 72 hours, 1000 uM, percent cells remaining after treatment) was determined as 101%. The viability at 100 µM in the test on IPC298 cells (read-out: CTG % cell viability 100 uM IPC298.2, IPC298 cells, 72 hours, 100 uM, percent cells remaining after treatment) was found to be 95.2%.

As for `CNS(=O)(=O)Nc1nccc(Cc2cncc(Nc3nc4c(cc3F)OCCO4)c2C)c1F` [Example 41, 7-fluoro-N-[5-[[3-fluoro-2-(methylsulfamoylamino)-4-pyridyl]methyl]-4-methyl-3-pyridyl]-2,3-dihydro-[1,4]dioxino[2,3-b]pyridin-6-amine], the IC50 was under 10 nM in the test on pMEK [1]; under 10 nM in the test with pMEK [2]; 2.32 nM in the test with pERK Thr202/Tyr204 [4] (numeric value); 100 to 500 nM in the test with HCT116 cells; 10 to 100 nM in the test on IPC298 cells.

`CNS(=O)(=O)Nc1nccc(Cc2cncc(Nc3cc4c(cc3F)OCCO4)c2C)c1F` [Example 42, 3-fluoro-4-[[5-[(6-fluoro-2,3-dihydro-1,4-benzodioxin-7-yl)amino]-4-methyl-3-pyridyl]methyl]-N-(methylsulfamoyl)pyridin-2-amine]: the IC50 is under 10 nM in the test with pMEK [1]; under 10 nM in the test with pMEK [2]; 0.791 nM in the test on pERK Thr202/Tyr204 [4] (numeric value); 100 to 500 nM with HCT116 cells; 10 to 100 nM in the test with IPC298 cells.

(Values after patent publication US20250288571A1 (Nested Therapeutics, Inc., priority 2024, published 2025).)
